Source: the NIST ThermoML archive (doi:10.1021/je700741x)
Numbers after ± are expanded uncertainties.

Conditions: 298.15 K; 101.33 kPa; Liquid

First: OCC(F)(F)F [2,2,2-trifluoroethanol]
Second: CCO [ethanol]
The mass density of the first is higher: 1382.4 ± 1.6 kg/m3 for the first, 785.2 ± 1 kg/m3 for the second.

Compared with `C1CCCCC1` [cyclohexane], `CC(C)O` [propan-2-ol] is higher in mass density: 774 ± 1 kg/m3 for the first, 781.4 ± 1.1 kg/m3 for the second.
